The target in data set [1] is T1, hMOR (Homo sapiens, UniProt P35372). The data set is described as follows: Radioligand binding assay (Eurofins Cerep), [3H]DAMGO displacement. Conditions: read-out: MOR Ki ± SEM.
In a further data set the target is hKOR (Homo sapiens, UniProt P41145). As to the kind of experiment: Radioligand binding assay (Eurofins Cerep), [3H]U69,593 displacement.
The target of the next data set is hDOR (Homo sapiens, UniProt P41143). As to the kind of experiment: Radioligand binding assay (Eurofins Cerep), [3H]DADLE displacement.
Sequence of hDOR (P41143 whole entry): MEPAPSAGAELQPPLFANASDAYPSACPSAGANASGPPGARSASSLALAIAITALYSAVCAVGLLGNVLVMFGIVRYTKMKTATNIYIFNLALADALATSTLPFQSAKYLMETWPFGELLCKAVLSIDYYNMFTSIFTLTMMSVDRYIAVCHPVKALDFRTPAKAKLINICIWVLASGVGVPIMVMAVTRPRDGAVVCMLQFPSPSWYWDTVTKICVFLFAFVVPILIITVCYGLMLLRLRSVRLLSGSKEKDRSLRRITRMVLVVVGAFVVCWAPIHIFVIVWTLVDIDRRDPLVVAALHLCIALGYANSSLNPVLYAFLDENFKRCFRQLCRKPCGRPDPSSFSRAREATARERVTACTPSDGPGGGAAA
The next data set has as its target T2, α2A adrenergic receptor (Homo sapiens, UniProt P08913).
T2 construct: Eurofins Cerep (contract screening)
T2 sequence (P08913 1-465): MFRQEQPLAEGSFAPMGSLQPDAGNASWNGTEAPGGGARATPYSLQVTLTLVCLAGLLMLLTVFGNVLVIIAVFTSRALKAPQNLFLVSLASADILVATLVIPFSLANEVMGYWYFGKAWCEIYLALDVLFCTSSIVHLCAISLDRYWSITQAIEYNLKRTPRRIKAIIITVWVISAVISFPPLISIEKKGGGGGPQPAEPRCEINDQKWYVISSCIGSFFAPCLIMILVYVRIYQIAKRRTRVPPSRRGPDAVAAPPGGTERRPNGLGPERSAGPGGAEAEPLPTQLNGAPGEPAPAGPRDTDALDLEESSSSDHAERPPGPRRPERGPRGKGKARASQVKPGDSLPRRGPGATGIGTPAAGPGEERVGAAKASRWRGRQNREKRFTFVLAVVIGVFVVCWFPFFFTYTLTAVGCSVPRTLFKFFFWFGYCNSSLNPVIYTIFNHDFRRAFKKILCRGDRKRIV
As to the kind of experiment: Radioligand binding assay (Eurofins Cerep), [3H]RX 821002 displacement.

Data set [2] concerns the target T1, hMOR. The data set is described as follows: Cyclic adenosine 3′,5′-monophosphate (cAMP) assay in hMOR-CHO cells. The format is cell-based. The note with it: N=1, control agonist DAMGO.
A further data set addresses T3, α2C adrenergic receptor (Homo sapiens, UniProt P18825).
T3 construct: Eurofins Cerep (contract screening)
T3 sequence (P18825 1-462): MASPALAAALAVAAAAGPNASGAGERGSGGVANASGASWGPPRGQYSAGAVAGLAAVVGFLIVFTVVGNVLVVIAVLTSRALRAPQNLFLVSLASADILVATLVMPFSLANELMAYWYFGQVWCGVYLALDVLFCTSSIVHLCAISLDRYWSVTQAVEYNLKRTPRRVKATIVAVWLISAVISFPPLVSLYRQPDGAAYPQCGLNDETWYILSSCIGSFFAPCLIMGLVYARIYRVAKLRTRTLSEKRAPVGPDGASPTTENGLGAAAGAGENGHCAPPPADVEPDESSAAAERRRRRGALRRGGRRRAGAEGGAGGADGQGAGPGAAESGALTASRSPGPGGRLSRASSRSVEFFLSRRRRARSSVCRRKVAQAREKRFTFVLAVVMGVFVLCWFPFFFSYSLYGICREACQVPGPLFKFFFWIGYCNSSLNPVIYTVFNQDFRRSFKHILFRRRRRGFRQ
As to the kind of experiment: Radioligand binding assay (Eurofins Cerep), [3H]RX 821002 displacement.

Data set [3] can be described thus: Metabolic stability in rat liver microsomes. In kind it is in vitro ADME. The note with it: in vitro intrinsic clearance in RLM scaled to whole organ (rat). As for the experimental part:
In vitro metabolic stability of each compound was determined using rat liver microsomes in triplicate. Verapamil was used as a positive control to check the activity of the microsomes. The incubation mixtures consisted of rat liver microsomes (1 mg microsomal protein/ml), substrate (1 μM), and reduced NADPH (1 mM) in a total volume of 0.4 ml potassium phosphate buffer (50 mM, pH 7.4). Reactions were initiated with the addition of NADPH and kept in an incubator shaker at 37° C. Aliquots of 25 μl were withdrawn at 0, 5, 10, 15, 30, and 60 min and mixed with 125 μl of acetonitrile with formic acid (0.1% v/v) containing phenacetin (50 ng/ml; internal standard) for the termination of the reaction. The samples were then vortex mixed and filtered through a […] 96-well membrane filtration plate under centrifugation at speed of 2000×g for 5 min at 4° C. The filtrates were subjected to UPLC-mass spectrometry (MS/MS) analysis.
The intrinsic clearance of the compounds was calculated using a half-life employing the ‘substrate depletion’ approach. The apparent half-life was calculated from the pseudo-first-order rate constants obtained by linear regression of log (concentration) and time plots. The in vitro intrinsic clearance of IFN was estimated using the formula: […]
Where k is the slope of the line obtained by plotting the natural logarithmic of the percentage of parent remaining versus time and V is the volume of incubation.
The in vitro intrinsic clearance was scaled to whole-organ (hepatic) in vivo intrinsic CL (CLint,H) using the scaling factors available in the literature using equation (Mahmood I. Application of allometric principles for the prediction of pharmacokinetics in human and veterinary drug development. Advanced drug delivery reviews, 2007, 59(11), 1177-1192)
MPPGL represents the microsomal protein per gram of Sprague Dawley rat liver (45 mg/g) and liver weight per kg body weight was 40 g/kg.

In data set [4] the target is T1, hMOR. The data set is described as follows: cell-based. On the set-up: expressed in transfected cells. The note with it: CHO.
Where [5] appears, read: Table A1, data summary #1, read-out: KOR Ki ± SEM.
Setting [6] is: Table A4, data summary #2, read-out: KOR Ki ± SEM.

Where two headings read alike, the source gives them in different places.

In general, Ki refers to the dissociation constant of the complex between target and ligand, obtained from inhibition or displacement. The Emax is the size of the effect at its maximum, as opposed to the concentration needed.

T1 sequence (P35372 whole entry): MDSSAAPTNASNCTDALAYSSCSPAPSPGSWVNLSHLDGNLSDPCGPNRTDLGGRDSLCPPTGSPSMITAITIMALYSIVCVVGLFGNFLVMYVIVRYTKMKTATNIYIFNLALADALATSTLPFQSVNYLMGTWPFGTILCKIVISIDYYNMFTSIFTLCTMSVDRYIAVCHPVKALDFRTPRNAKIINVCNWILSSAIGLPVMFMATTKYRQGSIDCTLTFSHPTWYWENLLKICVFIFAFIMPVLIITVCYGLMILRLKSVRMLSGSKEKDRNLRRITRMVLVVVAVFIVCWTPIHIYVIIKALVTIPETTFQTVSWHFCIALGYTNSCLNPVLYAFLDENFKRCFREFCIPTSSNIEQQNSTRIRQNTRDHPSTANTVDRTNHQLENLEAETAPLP
Sequence of hKOR (P41145 whole entry): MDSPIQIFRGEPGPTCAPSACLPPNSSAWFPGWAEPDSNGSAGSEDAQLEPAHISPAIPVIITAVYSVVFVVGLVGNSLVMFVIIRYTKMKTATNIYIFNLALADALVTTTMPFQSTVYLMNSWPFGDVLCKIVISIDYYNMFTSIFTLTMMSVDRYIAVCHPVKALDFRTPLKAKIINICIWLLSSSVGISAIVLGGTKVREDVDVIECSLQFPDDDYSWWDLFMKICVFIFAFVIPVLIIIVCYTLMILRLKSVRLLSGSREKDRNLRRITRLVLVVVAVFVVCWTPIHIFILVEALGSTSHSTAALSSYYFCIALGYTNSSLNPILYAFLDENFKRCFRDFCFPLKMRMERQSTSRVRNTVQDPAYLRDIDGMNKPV

Consider `CC[C@@H]1CN2CCc3c([nH]c4cccc(OC)c34)[C@@H]2C[C@@H]1/C(=C\OC)C(=O)Nc1ccccc1` [SUSM-528, (E)-2-((2S,3S,12bS)-3-ethyl-8-methoxy-1,2,3,4,6,7,12,12b-octahydroindolo[2,3-a]quinolizin-2-yl)-3-methoxy-N-phenylacrylamide], for which the Ki at hMOR [1] (Table A1, data summary #1) was 7.77 ± 3.62 µM; at hMOR [1] (Table A4, data summary #2), 0.498 ± 0.118 µM; on hKOR (setting [5]) it was more than 10000 nM; at hKOR (setting [6]), 6510 ± 4660 nM; at hDOR (DOR Ki ± SEM (nM), Table A4, data summary #2), more than 10000 nM; at α2A adrenergic receptor (Alpha2A Ki ± SEM (nM), Table A1, data summary #1) it was 6580 ± 2320 nM. The compound further yielded a Ki at α2A adrenergic receptor (Alpha2A Ki ± SEM (nM), Table A4, data summary #2) of 6580 ± 2320 nM. Besides, the “functional activity in cAMP assay” value was “agonist, however its potency was less than DAMGO” at hMOR [2] and “agonist, but less potent than DAMGO” at hMOR [2] (listed as SUSM 528).
`CC[C@@H]1CN2CCc3c([nH]c4cccc(OC)c34)[C@@H]2C[C@@H]1/C(=C\OC)C(=O)OC` [Mitragynine, mitragynine, reference compound]: the Ki on hKOR (Table 3-1, 3 independent experiments, read-out: Ki (nM ± SEM) KOR) came out at 1530 ± 485 nM; on hKOR (setting [5]), 1530 nM; on hKOR (setting [6]), 264 nM; on hKOR (Table B1′, read-out: KOR Ki ± SEM), 1530 ± 143 nM; on hDOR (Table 3-1, 3 independent experiments, read-out: Ki (nM ± SEM) DOR), 6800 ± 721 nM; at hDOR (Table A1, data summary #1, read-out: DOR Ki ± SEM), 6800 nM. Besides, the inhibition constant Ki on hDOR (Table A4, data summary #2, read-out: DOR Ki ± SEM) is 1950 nM; at hDOR (Table B1′, read-out: DOR Ki ± SEM) it was 6800 ± 721 nM; on α2A adrenergic receptor (Table 3-1, 3 independent experiments, read-out: Ki (nM ± SEM) a2A-AR), 4090 ± 273 nM; on α2A adrenergic receptor (Table A1, data summary #1, read-out: Alpha2A Ki ± SEM) it was 4090 nM; at α2A adrenergic receptor (Table A4, data summary #2, read-out: Alpha2A Ki ± SEM), 1350 nM; at α2A adrenergic receptor (Table B1, mean ± SEM, 3 independent experiments, read-out: Alpha2A Ki ± SEM), 709 ± 91.2 nM. The Ki is 4090 ± 273 nM on α2A adrenergic receptor (Table B1′, read-out: alpha2A Ki ± SEM); 709 ± 91.2 nM on α2A adrenergic receptor (Table B2, mean ± SEM, 3 independent experiments, read-out: Alpha2A Ki ± SEM); 4040 nM on α2C adrenergic receptor (Alpha2C Ki ± SEM (nM), Table A1, data summary #1); 4090 ± 372 nM on α2C adrenergic receptor (Alpha2C Ki ± SEM (nM), Table B2, mean ± SEM, 3 independent experiments); 4040 ± 417 nM at α2C adrenergic receptor (Ki (nM ± SEM) a2C-AR, Table 3-1, 3 independent experiments). Further, the “Whole liver clearance, CL int, H” value in data set [3] stood at 35.5 mL/min/kg. For the same compound, the Emax on hMOR [4] (read-out: MOR Emax ± SEM (% DAMGO), Table A1, data summary #1) was determined as 3.97%; on hMOR [4] (read-out: MOR Emax ± SEM (%)) it was 3.97 ± 9.5%.

Source of the values: US20260234147A1 (priority 2023, published 2026).
